Measurements from US11427553B2, “Dihydrooxadiazinones” (Bayer Aktiengesellschaft, priority 2017, dated 2022).

How the values were obtained:
[1] = biological target: human full length PDE3B (Homo sapiens (Human), UniProt Q13370); experiment: Assay 5 PDE3B enzyme inhibition (3H-cAMP SPA); type: biochemical; conditions: Sf9 cell extract
In short: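 Compounds in DMSO are mixed with diluted PDE3B extract from Sf9 cells, and reactions start on adding tritiated cAMP. After 60 min at room temperature, yttrium scintillation proximity beads terminate hydrolysis and signal is counted; IC50 values come from sigmoidal dose-response curves.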

[2] = test system: SK-MEL-3 cells; experiment: Assay 1 cell proliferation measurement (CTG, 72 h), SK-MEL-3; type: cell-based, human; conditions: Homo sapiens, SK-MEL3; Assay 1, 72 h, Cell Titer Glo; read-out: SK-MEL-3 IC50 [nM] (melanoma)
In short: (§1)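 Seed cells, incubate overnight at 37 °C; measure baseline viability (CTG, 0 h plate); dose compound in a 10-step 2.5-fold series (max generally 100 nM final, DMSO 0.3%) for 72 h; read CTG luminescence; fit IC50 with 4 parameters.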

[3] = test system: HeLa cells; experiment: Assay 1 cell proliferation measurement (CTG, 72 h), HeLa; type: cell-based, human; conditions: Homo sapiens, HeLa; Assay 1, 72 h, Cell Titer Glo; read-out: HeLa IC50 [nM] (Cervical cancer)
In short: as §1

[4] = biological target: human full length PDE3A (Homo sapiens (Human), UniProt Q14432); experiment: Assay 4 PDE3A enzyme inhibition (3H-cAMP SPA); type: biochemical; conditions: Sf9 cell extract
In short: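 In this SPA format, the 60-min room-temperature reaction used 0.025 μCi [8-3H]cAMP and diluted full-length PDE3A from Sf9 cells. Percentage activity was plotted against log compound concentration to derive IC50.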

Chain of human full length PDE3A (Q14432 whole entry): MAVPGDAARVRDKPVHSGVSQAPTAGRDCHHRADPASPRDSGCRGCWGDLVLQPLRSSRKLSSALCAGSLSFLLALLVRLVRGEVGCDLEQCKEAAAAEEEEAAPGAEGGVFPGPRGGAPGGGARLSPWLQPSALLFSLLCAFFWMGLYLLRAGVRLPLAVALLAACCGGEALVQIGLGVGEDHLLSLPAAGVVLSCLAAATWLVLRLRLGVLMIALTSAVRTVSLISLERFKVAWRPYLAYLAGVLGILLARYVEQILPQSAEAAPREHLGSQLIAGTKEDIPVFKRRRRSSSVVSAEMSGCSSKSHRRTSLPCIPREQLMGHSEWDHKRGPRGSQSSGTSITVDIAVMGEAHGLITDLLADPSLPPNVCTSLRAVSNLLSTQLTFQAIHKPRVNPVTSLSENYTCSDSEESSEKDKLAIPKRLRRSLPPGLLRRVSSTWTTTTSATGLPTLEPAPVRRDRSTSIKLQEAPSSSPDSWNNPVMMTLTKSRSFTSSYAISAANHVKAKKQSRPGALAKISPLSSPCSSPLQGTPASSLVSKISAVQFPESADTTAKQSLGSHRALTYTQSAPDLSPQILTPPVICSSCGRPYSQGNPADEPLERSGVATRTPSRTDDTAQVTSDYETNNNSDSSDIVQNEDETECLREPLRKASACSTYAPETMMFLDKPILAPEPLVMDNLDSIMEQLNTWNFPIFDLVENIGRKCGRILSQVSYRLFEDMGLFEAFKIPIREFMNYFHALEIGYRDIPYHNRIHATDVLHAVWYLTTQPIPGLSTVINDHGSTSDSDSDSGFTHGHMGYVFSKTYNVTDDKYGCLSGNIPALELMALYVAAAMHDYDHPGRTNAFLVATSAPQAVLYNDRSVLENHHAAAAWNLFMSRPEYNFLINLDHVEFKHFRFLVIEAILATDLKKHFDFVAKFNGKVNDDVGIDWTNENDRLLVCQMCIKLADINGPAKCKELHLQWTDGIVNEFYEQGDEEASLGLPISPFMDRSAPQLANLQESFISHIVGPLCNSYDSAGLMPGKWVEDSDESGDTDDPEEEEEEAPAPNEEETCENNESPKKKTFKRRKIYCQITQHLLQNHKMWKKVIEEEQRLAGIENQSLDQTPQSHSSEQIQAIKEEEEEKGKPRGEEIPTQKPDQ
Chain of human full length PDE3B (Q13370 whole entry): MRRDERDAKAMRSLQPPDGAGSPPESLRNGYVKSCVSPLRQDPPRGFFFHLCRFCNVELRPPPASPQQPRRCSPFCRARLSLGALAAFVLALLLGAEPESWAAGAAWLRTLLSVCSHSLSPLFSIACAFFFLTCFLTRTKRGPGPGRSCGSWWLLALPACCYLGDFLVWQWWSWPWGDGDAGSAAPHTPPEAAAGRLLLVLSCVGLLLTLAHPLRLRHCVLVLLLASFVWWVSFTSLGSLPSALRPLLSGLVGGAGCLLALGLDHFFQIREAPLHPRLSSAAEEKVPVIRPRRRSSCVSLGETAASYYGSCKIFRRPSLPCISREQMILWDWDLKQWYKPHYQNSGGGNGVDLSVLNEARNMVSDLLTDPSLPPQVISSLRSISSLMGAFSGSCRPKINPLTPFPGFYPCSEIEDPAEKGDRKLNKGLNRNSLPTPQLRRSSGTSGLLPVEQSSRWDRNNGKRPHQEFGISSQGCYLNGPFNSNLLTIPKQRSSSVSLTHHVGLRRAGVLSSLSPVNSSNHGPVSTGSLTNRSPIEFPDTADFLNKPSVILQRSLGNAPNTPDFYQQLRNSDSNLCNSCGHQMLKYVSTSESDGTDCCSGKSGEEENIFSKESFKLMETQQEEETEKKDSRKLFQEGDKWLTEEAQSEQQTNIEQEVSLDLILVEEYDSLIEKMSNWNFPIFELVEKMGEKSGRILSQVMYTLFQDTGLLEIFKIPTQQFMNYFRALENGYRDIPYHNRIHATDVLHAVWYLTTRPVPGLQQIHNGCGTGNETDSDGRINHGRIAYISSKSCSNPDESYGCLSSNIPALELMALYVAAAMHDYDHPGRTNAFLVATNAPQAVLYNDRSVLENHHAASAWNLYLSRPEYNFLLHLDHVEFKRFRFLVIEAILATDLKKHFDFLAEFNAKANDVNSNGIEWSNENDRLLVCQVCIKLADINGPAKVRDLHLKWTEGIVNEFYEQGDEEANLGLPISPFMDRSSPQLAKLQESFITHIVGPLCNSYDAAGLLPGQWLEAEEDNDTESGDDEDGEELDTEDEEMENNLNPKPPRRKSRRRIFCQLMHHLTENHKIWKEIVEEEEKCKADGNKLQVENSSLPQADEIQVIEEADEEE

| Compound | IC50 [1] | IC50 [2] | IC50 [3] | IC50 [4] |
| --- | --- | --- | --- | --- |
| CC(C)n1cc(-c2ccc(C3=NNC(=O)OC3)cc2C(F)(F)F)cn1 [Example 153, 5-{4-[1-(Propan-2-yl)-1H-pyrazol-4-yl]-3-(trifluoromethyl)phenyl}-3,6-dihydro-2H-1,3,4-oxadiazin-2-one] | 0.026 µM | 7 nM | 4 nM | 0.015 µM |
| Cc1cc(C2=NNC(=O)OC2)ccc1-c1cn[nH]c1 [Example 11, 5-[3-Methyl-4-(1H-pyrazol-4-yl)phenyl]-3,6-dihydro-2H-1,3,4-oxadiazin-2-one] | 0.065 µM | 49 nM | 19 nM | 0.084 µM |
| C[C@@H]1OC(=O)NN=C1c1ccc(-c2cc(F)ccc2F)c(C(F)(F)F)c1 [Example 171, (6S)-5-[2′,5′-Difluoro-2-(trifluoromethyl)[1,1′-biphenyl]-4-yl]-6-methyl-3,6-dihydro-2H-1,3,4-oxadiazin-2-one] | 0.21 µM | 31 nM | 18 nM | 0.15 µM |
| Cc1ncc(-c2ccc(C3=NNC(=O)OC3)cc2F)cn1 [Example 94, 5-[3-Fluoro-4-(2-methylpyrimidin-5-yl)phenyl]-3,6-dihydro-2H-1,3,4-oxadiazin-2-one] | 0.28 µM | 36 nM | 16 nM | 0.091 µM |
| O=C1NN=C(c2ccc(NCC3CC3)c(C(F)(F)F)c2)CO1 [Example 212, 5-{4-[(Cyclopropylmethyl)amino]-3-(trifluoromethyl)phenyl}-3,6-dihydro-2H-1,3,4-oxadiazin-2-one] | 0.024 µM | 2 nM | 1 nM | 0.026 µM |
| Cc1ccc(-c2ccc(C3=NNC(=O)OC3)cc2OC(F)(F)F)cn1 [Example 70, 5-[4-(6-Methylpyridin-3-yl)-3-(trifluoromethoxy)phenyl]-3,6-dihydro-2H-1,3,4-oxadiazin-2-one] | 0.17 µM | 29 nM | 15 nM | 0.075 µM |
| Cc1ccncc1-c1ccc(C2=NNC(=O)O[C@H]2C)cc1C(F)(F)F [Example 182, (6S)-6-Methyl-5-[4-(4-methylpyridin-3-yl)-3-(trifluoromethyl)phenyl]-3,6-dihydro-2H-1,3,4-oxadiazin-2-one] | 0.26 µM | 54 nM | 39 nM | 0.22 µM |
| Cc1ccc(-c2ccc(C3=NNC(=O)O[C@H]3C)cc2C(F)(F)F)cc1 [Example 189, (6S)-6-Methyl-5-[4′-methyl-2-(trifluoromethyl)[1,1′-biphenyl]-4-yl]-3,6-dihydro-2H-1,3,4-oxadiazin-2-one] | 0.2 µM | 12 nM | 6 nM | 0.19 µM |
| O=C1NN=C(c2ccc(CN3CCOCC3)c(C(F)(F)F)c2)CO1 [Example 197, 5-{4-[(Morpholin-4-yl)methyl]-3-(trifluoromethyl)phenyl}-3,6-dihydro-2H-1,3,4-oxadiazin-2-one] | 0.803 µM | 10 nM | 5 nM | 0.65 µM |
| Cc1ncc(-c2ccc(C3=NNC(=O)OC3)cc2C)cn1 [Example 28, 5-[3-Methyl-4-(2-methylpyrimidin-5-yl)phenyl]-3,6-dihydro-2H-1,3,4-oxadiazin-2-one] | 0.04 µM | 28 nM | 14 nM | 0.031 µM |
| O=C1NN=C(c2ccc(-c3ccccc3F)c(F)c2)CO1 [Example 114, 5-(2,2′-Difluoro[1,1′-biphenyl]-4-yl)-3,6-dihydro-2H-1,3,4-oxadiazin-2-one] | 0.1 µM | 7 nM | 4 nM | 0.092 µM |
| Nc1ccc(-c2ccc(C3=NNC(=O)OC3)cc2C(F)(F)F)cn1 [Example 40, 5-[4-(6-Aminopyridin-3-yl)-3-(trifluoromethyl)phenyl]-3,6-dihydro-2H-1,3,4-oxadiazin-2-one] | 0.039 µM | 7 nM | 5 nM | 0.042 µM |
| O=C1NN=C(c2ccc(C3=CCOC3)c(C(F)F)c2)CO1 [Example 329, 5-[3-(difluoromethyl)-4-(2,5-dihydrofuran-3-yl)phenyl]-3,6-dihydro-2H-1,3,4-oxadiazin-2-one] | 0.093 µM | 64 nM | 41 nM | 0.1 µM |
| COc1ccc(-c2ccc(C3=NNC(=O)OC3)cc2F)cn1 [Example 85, 5-[3-Fluoro-4-(6-methoxypyridin-3-yl)phenyl]-3,6-dihydro-2H-1,3,4-oxadiazin-2-one] | 0.078 µM | 13 nM | 7 nM | 0.033 µM |
| O=C1NN=C(c2ccc(C3=CCNCC3)c(C(F)(F)F)c2)CO1 [Example 328, 5-[4-(1,2,3,6-tetrahydropyridin-4-yl)-3-(trifluoromethyl)phenyl]-3,6-dihydro-2H-1,3,4-oxadiazin-2-one] | 0.091 µM | > 100 nM | 47 nM | 0.074 µM |
| O=C1NN=C(c2ccc(Br)c(C(F)(F)F)c2)CO1 [Intermediate 78, 5-[4-bromo-3-(trifluoromethyl)phenyl]-3,6-dihydro-2H-1,3,4-oxadiazin-2-one] | 0.18 µM | 20 nM | 8 nM | 0.14 µM |
| C[C@@H]1OC(=O)NN=C1c1ccc(-c2ccc3[nH]ccc3c2)c(C(F)(F)F)c1 [Example 173, (6S)-5-[4-(1H-Indol-5-yl)-3-(trifluoromethyl)phenyl]-6-methyl-3,6-dihydro-2H-1,3,4-oxadiazin-2-one] | 0.058 µM | 27 nM | 15 nM | 0.058 µM |
| Cc1ccncc1-c1ccc(C2=NNC(=O)OC2)cc1F [Example 118, 5-[3-Fluoro-4-(4-methylpyridin-3-yl)phenyl]-3,6-dihydro-2H-1,3,4-oxadiazin-2-one] | 0.064 µM | 6 nM | 3 nM | 0.06 µM |
| CC(C)(O)c1ccc(C2=NNC(=O)OC2)cc1C(F)(F)F [Example 278, 5-[4-(2-Hydroxypropan-2-yl)-3-(trifluoromethyl)phenyl]-3,6-dihydro-2H-1,3,4-oxadiazin-2-one] | > 1 µM | 80 nM | 58 nM | > 1 µM |
| Cc1ccc(-c2ccc(C3=NNC(=O)OC3)cc2F)cn1 [Example 97, 5-[3-Fluoro-4-(6-methylpyridin-3-yl)phenyl]-3,6-dihydro-2H-1,3,4-oxadiazin-2-one] | 0.13 µM | 8 nM | 5 nM | 0.065 µM |
| O=C1NN=C(c2ccc(Cl)c(OC(F)(F)F)c2)CO1 [Intermediate 73, 5-[4-Chloro-3-(trifluoromethoxy)phenyl]-3,6-dihydro-2H-1,3,4-oxadiazin-2-one] | > 1 µM | > 100 nM | 58 nM | 0.72 µM |
| CNc1ccc(-c2ccc(C3=NNC(=O)OC3)cc2C(F)(F)F)cc1 [Example 55, 5-[4′-(Methylamino)-2-(trifluoromethyl)biphenyl-4-yl]-3,6-dihydro-2H-1,3,4-oxadiazin-2-one] | 0.25 µM | 14 nM | 7 nM | 0.28 µM |
| C[C@@H](O)CCNc1ccc(C2=NNC(=O)OC2)cc1C(F)(F)F [Example 217, 5-[4-{[(3R)-3-Hydroxybutyl]amino}-3-(trifluoromethyl)phenyl]-3,6-dihydro-2H-1,3,4-oxadiazin-2-one] | 0.21 µM | 16 nM | 14 nM | 0.065 µM |
